Laboratory results from US11174223B2, “Compositions, methods, and systems for the synthesis and use of imaging agents” (Lantheus Medical Imaging, Inc., priority 2010, dated 2021).

Key:
[1] = Regional myocardial radioactivity concentration by dynamic PET in normal subjects; format: in vivo, human
Protocol: A human study was performed that determined the quantification of normal pattern of regional myocardial radioactivity concentration of imaging agent-1.
Normal subjects (n=6) were injected with ˜220 MBq of imaging agent-1 intravenously, and dynamic PET images were acquired over 80 min without patient movement. Attenuation corrected images were re-oriented into standard cardiac specific axes, and the maximal regional myocardial uptake was quantified on a sector-by-sector basis using WLCQ software. […] Activity was expressed as Bq/ml.

[2] = Whole organ bio-distribution and dosimetry from PET in healthy subjects; format: in vivo, human
Protocol: Whole organ bio-distribution and dosimetry for ^18F-labeled imaging agent-1 were determined based on PET image data from twelve healthy subjects. Image quantification, kinetic modeling to determine residence times, and dosimetry analysis were performed.
Head to mid-thigh PET image data for twelve healthy subjects were obtained using ^18F labeled imaging agent-1 at approximately 17, 31, 45, 117, 190, and 225 minutes post injection. Additionally, leg images were also obtained at approximately 66 and 274 minutes post injection. Image data were attenuation corrected at the imaging site, and were quantified based on the Medical Internal Radiation Dosimetry (MIRD) 16 methodology to determine kinetic data in all organs showing significant uptake of activity. Dosimetry estimates were created via kinetic modeling of the quantified image data to determine residence times, and the standard MIRD methodology using a method similar. Kinetic data, residence times, and the dosimetry estimates were reported for each subject and as summary statistics.

[3] = target: T1, norepinephrine transporter (NET) (Homo sapiens, UniProt P23975); assay: Uptake and uptake kinetics in SH-SY5Y human neuroblastoma cells; format: cell-based
T1 construct: endogenous in cells; host or cells: SH-SY5Y
T1 sequence (P23975 whole entry): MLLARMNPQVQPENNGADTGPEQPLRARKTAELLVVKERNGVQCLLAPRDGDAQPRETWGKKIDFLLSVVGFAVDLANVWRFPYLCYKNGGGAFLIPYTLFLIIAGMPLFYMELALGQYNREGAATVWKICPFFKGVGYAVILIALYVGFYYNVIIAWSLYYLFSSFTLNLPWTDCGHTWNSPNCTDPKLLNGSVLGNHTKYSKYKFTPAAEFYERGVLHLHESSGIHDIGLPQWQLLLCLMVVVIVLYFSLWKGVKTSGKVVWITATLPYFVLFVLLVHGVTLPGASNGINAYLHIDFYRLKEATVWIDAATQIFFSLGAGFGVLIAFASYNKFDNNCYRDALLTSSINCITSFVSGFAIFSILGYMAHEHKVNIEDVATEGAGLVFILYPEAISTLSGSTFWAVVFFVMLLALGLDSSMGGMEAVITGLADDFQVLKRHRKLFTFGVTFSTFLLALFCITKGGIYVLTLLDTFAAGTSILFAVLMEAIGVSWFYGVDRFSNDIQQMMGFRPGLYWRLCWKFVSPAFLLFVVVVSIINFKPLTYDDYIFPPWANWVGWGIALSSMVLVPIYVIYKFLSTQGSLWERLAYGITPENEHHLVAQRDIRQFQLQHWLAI
Protocol: (§1) Imaging agent-1 was designed as a substrate for the norepinephrine transporter (NET) to image the cardiac sympathetic nervous system. […] These values were similar to that of MIBG (2.12±0.26 μM and 4.76±0.78 pmol/min/million cells). In animals, tissue biodistribution of imaging agent-1 was assessed by tissue sampling at 15- and 60-minute following administration. Heart uptake was 2.36±0.16 and 2.17±0.12% injected dose per g tissue (% ID/g) in rats and 0.25±0.03 and 0.28±0.03% ID/g in rabbits. In rabbits, desipramine (1 mg/kg) inhibited heart uptake of imaging agent-1 by 68% and ^123I-MIBG uptake by 55% at 1 hour post dose.

[4] = Tissue biodistribution by tissue sampling in rats; format: in vivo
Protocol: as §1

[5] = Tissue biodistribution by tissue sampling in rabbits; format: in vivo
Protocol: as §1

[6] = test system: norepinephrine transporter (NET), uptake 1; assay: Heart uptake in rats after uptake 1 blockade (desipramine) or 6-hydroxydopamine sympathetic denervation; format: in vivo; settings: 60 minutes post injection
Protocol: (§2) Desipramine, a selective uptake 1 inhibitor, was used to block cardiac uptake 1 in rats (10 mg/kg, ip), rabbits (1 mg/kg iv), and NHPs (0.5 mg/kg, iv). 6-hydroxydopamine, a neurotoxin, was injected to induce sympathetic denervation in rats (100 mg/kg ip for 7 days) and rabbits (25 mg/kg iv on day 1, 2, 7, and 8). Imaging agent-1 heart uptake in comparison with MIBG was assessed by tissue sampling at 60 minutes post imaging agent injection. Imaging was also performed with (2-tert-butyl-4-chloro-5-[4-(2-[^18F]fluoroethoxymethyl)-benzyloxy]-2H-pyridazin-3-1.

[7] = test system: norepinephrine transporter (NET), uptake 1; assay: Cardiac imaging in NHPs pretreated with desipramine; format: in vivo, nonhuman primates (NHP); settings: desipramine 0.5 mg/kg
Protocol: as §1, §2

[8] = target: T2, NET (Rattus norvegicus, UniProt Q63380); assay: Cell uptake selectivity with and without desipramine in PC-12 cells; format: cell-based
T2 construct: endogenous in cells; host or cells: PC-12
T2 sequence (Q63380 1-617): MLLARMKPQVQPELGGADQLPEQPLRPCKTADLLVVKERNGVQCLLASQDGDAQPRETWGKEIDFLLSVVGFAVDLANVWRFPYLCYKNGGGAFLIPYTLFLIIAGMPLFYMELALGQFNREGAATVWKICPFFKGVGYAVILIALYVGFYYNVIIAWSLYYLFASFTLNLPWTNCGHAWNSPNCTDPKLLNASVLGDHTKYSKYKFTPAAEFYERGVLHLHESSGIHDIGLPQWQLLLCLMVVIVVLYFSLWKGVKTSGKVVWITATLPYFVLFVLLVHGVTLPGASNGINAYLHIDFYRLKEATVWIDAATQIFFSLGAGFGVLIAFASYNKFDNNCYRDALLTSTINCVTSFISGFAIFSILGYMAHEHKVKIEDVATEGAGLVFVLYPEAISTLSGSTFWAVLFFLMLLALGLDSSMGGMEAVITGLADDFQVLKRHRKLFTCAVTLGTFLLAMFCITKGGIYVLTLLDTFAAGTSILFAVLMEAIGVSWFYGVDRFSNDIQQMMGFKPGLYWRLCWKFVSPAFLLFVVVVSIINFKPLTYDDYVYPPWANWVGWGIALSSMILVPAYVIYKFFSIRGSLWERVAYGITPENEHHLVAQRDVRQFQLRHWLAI
Protocol: (§3) The affinity (Ki) was determined in a competition binding assay by incubating ^19F-imaging agent-1, a cold analog of imaging agent-1, or NE with ^3H-desmethylimipramine in cell membrane overexpressing human NET. The uptake selectivity was assessed by measuring imaging agent-1 or ^3H-NE cell uptake with and without pretreatment of desipramine, a selective NET inhibitor, in SK—N—SH (human neuroblastoma) and PC-12 (rat pheochromocytoma) cells. In SK—NSH cells, the uptake kinetics (Km and Vmax) were evaluated by measuring NET mediated uptake of imaging agent-1 or NE at various concentrations. Imaging agent-1 cardiac image quality was evaluated by PET imaging (˜1.5 mCi, i.v.) in rabbits in the presence and absence of desipramine (1 mg/kg).

[9] = Cardiac PET imaging in rabbit models of regional and systemic cardiac sympathetic denervation (CSD); format: in vivo, rabbits
Protocol: Rabbit models of regional and systemic CSD were used. To develop regional CSD, a median sternotomy was performed and phenol (89% in liquid) was pained on the anterior and posterior walls of the left ventricle. To develop systemic denervation the neurotoxin, 6-hydroxydopamine (25 mg/kg on day 1, 2, 7 and 8), was administered intravenously. Two weeks following these procedures, rabbits were imaged with imaging agent-1 (˜1.5 mCi, i.v.) using a microPET camera for 30 minutes.

[10] = Cardiac PET imaging in rabbit model of regional cardiac sympathetic denervation (RCSD) and re-innervation; format: in vivo, rabbits
Protocol: Rabbit models of RCSD were developed by applying phenol directly on the surface of the left ventricular wall during a sternotomy. Two and twelve weeks following the procedure, imaging agent-1 cardiac PET imaging (˜1.5 mCi, iv) were performed in these rabbits. The myocardial area with radioactivity ≥50% maximum was quantified as innervated region for comparison. To evaluate susceptibility of arrhythmia in rabbits, dofetilide (10 and 40 μg/kg iv, a delayed IKr inhibitor) induced changes were assessed by measuring ECG including heart rate (HR), QTc interval (corrected by Fridericia method), and frequency of arrhythmia.

[11] = target: NET (Homo sapiens, UniProt P23975); assay: NET mediated uptake kinetics in SK-N-SH cells; format: cell-based; set-up: endogenous in cells; host or cells: SK-N-SH
Chain of NET (Homo sapiens, UniProt P23975) (P23975 whole entry): as the sequence (P23975 whole entry) above
Protocol: as §3

[12] = 15-minute following administration
[13] = 60-minute following administration

Clearance of radiotracer from blood ([1]; normal subjects n=6, ~220 MBq iv): cleared quickly from the blood
Time at which myocardial activity reached a plateau ([1]; post injection): ~60 min
Time of peak of regional and global myocardial activity ([1]; post injection): ≤ 10 min
Myocardial uptake, Apical short axis slice ([1]; ~60 min post injection): 11678±2148 Bq/ml
Myocardial uptake, Base short axis slice ([1]; ~60 min post injection): 11284±2844 Bq/ml
Myocardial uptake, Mid short axis slice ([1]; ~60 min post injection): 11898±2047 Bq/ml
Regional myocardial uptake, Anterior sector ([1]; ~60 min post injection): 11592±2474 Bq/ml
Regional myocardial uptake, Inferior sector ([1]; ~60 min post injection): 11818±1991 Bq/ml
Regional myocardial uptake, Lateral sector ([1]; ~60 min post injection): 11424±2439 Bq/ml
Regional myocardial uptake, Septal sector ([1]; ~60 min post injection): 11647±2829 Bq/ml
Ratio of myocardial to liver radioactivity ([2]; at 4 hours): more than two
Injected dose remaining in the myocardium ([2]; decay-corrected, through 4 hours after injection): above 1.5 % of ID
Blood radioactivity clearance ([2]; human, in vivo): cleared quickly
Lung activity ([2]; human, in vivo): low throughout the study
Ratio of myocardial to liver radioactivity ([2]; initially): approximately one
Vmax (uptake kinetics) ([3]; SH-SY5Y cells): 5.18±1.23 pmol/min/million cells
Uptake in SH-SY5Y cells in presence of desipramine, a selective NET inhibitor ([3]; SH-SY5Y human neuroblastoma cell line): inhibited by desipramine
Heart uptake [4, 12]: 2.36±0.16 % ID/g
Heart uptake [4, 13]: 2.17±0.12 % ID/g
Heart uptake [5, 12]: 0.25±0.03 % ID/g
Heart uptake [5, 13]: 0.28±0.03 % ID/g
tissue uptake at 60 min ([6]; rat, heart, other: injection, rats, control group of denervation): 2.58 ± 0.76 %ID/g
Heart uptake ([6]; rats, control of uptake 1 blockade): 1.47±0.22 % ID/g
Heart uptake ([6]; rats, uptake 1 blocked (desipramine 10 mg/kg ip)): 1.41±0.07 % ID/g
Heart uptake ([6]; sympathetic denervated rats (6-hydroxydopamine)): 2.18±0.39 % ID/g
Inhibition of cell uptake by blockade of NET (desipramine) [8]: 66±7%
Vmax (NET mediated uptake) [11]: 6.0±1.3 pMol/million cells/min
SMILES: N=C(N)NCc1ccc(OCCC[18F])c(Br)c1 [imaging agent-1, 1-{3-Bromo-4-[3-[^18F]fluoropropoxy]benzyl}guanidine]
Peak uptake, liver ([2]; average): approximately 15.5 % of the injected activity
Peak uptake, urinary bladder ([2]; average): approximately 18.3 % of the injected activity
Tolerability ([2]; human, in vivo): well tolerated
Injected dose seen in the myocardium initially ([2]; initially): Approximately 1.6 % of the injected dose (ID)
Adverse events ([2]; twelve healthy subjects): No adverse events
Decrease of radioactivity in the heart by desipramine pretreatment (cardiac imaging) [7]: 68%
Global reduction in heart uptake compared to control animals (image based quantification) ([9]; rabbits with systemic denervation (6-hydroxydopamine)): ~80%
Uptake in the treated regions after regional denervation ([9]; rabbits, phenol regional denervation): marked reduction
Innervated region (myocardial area with radioactivity ≥50% maximum) ([10]; phenol RCSD rabbits, 2 weeks post surgery): 12245±905 voxels
Innervated region (myocardial area with radioactivity ≥50% maximum) ([10]; phenol RCSD rabbits, 12 weeks): 16812±503 voxels
Innervated region (myocardial area with radioactivity ≥50% maximum) ([10]; sham-denervated rabbits): 20702±2190 voxels
